US9234046B2, “Treatment of renal disease” (OPSONA Therapeutics Ltd, priority 2007, dated 2016)
“And” between values parts separate entries of the source, which are not always exact repeats. Equal entries are not always repeated.

Tests used:
C57BL/6 mice [1] = experiment: Nephrotoxic serum + Pam3CysSK4 glomerular inflammation model, 2 hours: glomerular neutrophils and circulating leukocytes; format: in vivo; details: individual mice; 2 hours after disease induction; 50 glomerular cross sections counted
Experimental: (§1) Methods for generating nephrotoxic antibody, blood counts, processing histology, assessment of histology are disclosed in Brown H J, Lock, H R, Sacks S H, Robson M G TLR2 stimulation of intrinsic kidney cells in the induction of immune mediated glomerulonephritis, J Immunol 2006, 177(3):1925-1931, the contents of which are incorporated herein by reference. These methods were followed in the performance of the present example.
(§2) The glomerular histology was assessed at 2 hours and 24 hours following disease induction with NTS. Kidneys were fixed in Bouin's solution and stained with periodic acid-Schiff reagent. At 2 hours, the number of neutrophils (identified by their characteristic nuclear morphology) per 50 glomerular cross sections was counted. At 24 hours, the amount of glomerular thrombosis was assessed by identification of the amount of periodic acid-Schiff-positive material. In total, 50 glomeruli were assessed for each animal for signs of glomerular thrombosis, and a score was assigned as follows: grade 0, no periodic acid-Schiff-positive material; grade 1, <25%; grade 2, 25-50%; grade 3, 50-75%; grade 4, 75-100%. All sections scored for neutrophils and glomerular thrombosis were done so blindly.
200 ul of nephrotoxic serum containing 10 ug of the lipopetide Pam3CysSK4 (EMC microcollections) was given intravenously via the tail vein. […]

C57BL/6 mice [2] = experiment: Nephrotoxic serum + Pam3CysSK4 glomerular inflammation model, 24 hours: albuminuria and glomerular thrombosis; format: in vivo
Experimental: as §1
Kidney samples were fixed for 4 hours in Bouin's solution, transferred into formalin, then processed and embedded in paraffin. Sections were cut at 0.5 μm thickness and stained with periodic acid-Schiff (PAS) reagent. All samples then were assessed blindly for glomerular thrombosis by identification of the amount of PAS-positive material. In total, 50 glomeruli were assessed for each mouse for signs of glomerular thrombosis, and a score was assigned to each as follows: Grade 0, no PAS-positive material; grade 1, […]; grade 2, 25 to 50%, grade 3, 50 to 75%, and grade 4, 75 to 100%. The average glomerular thrombosis score for each mouse then was calculated. Sections also were assessed blindly for glomerular crescents. A total of 50 glomeruli were assessed, and the number of crescents (two or more layers of cells in Bowman's space) was expressed as a percentage.
as §2
Mice were housed in metabolic cages for 24 hours for urine collections. The urine albumin concentration was measured by radial immunodiffusion. The sensitivity of the radial immunodiffusion assay for albumin was 0.05 mg/ml. Urine samples were diluted to 1:40 so that values fell on the standard curve.
200 ul of nephrotoxic serum containing 10 ug of the lipopetide Pam3CysSK4 (EMC microcollections) was given intravenously via the tail vein. 2 hours prior to this, mice were treated as follows. […]
The above groups were place in metabolic cages immediately after induction of disease and exsanguinated under anaesthesia 24 hours later. […] Albuminuria and thrombosis data was analysed after a logarithmic transformation.

[3] = 24 hours, versus other treatment groups

C[C@]12C=CC(=O)C=C1CC[C@@H]1[C@@H]2C(=O)C[C@@]2(C)[C@H]1CC[C@]2(O)C(=O)CO [Prednisone]
pmn/glom (neutrophils per glomerular cross section) (C57BL/6 mice [1]): 0.54 pmn/glom and 0.28 pmn/glom and 0.42 pmn/glom and 0.24 pmn/glom and 0.34 pmn/glom
albuminuria, in words (C57BL/6 mice [2]; [3]): did not reach significance
glomerular thrombosis, in words (C57BL/6 mice [2]; [3]): significantly less thrombosis than PBS but not control antibody treated mice
alb, mg/ml (albuminuria) (C57BL/6 mice [2]; individual mice, 24 hour urine collection, radial immunodiffusion): 2.54 mg/mL and 4.54 mg/mL and 4.71 mg/mL and 4.98 mg/mL
Thromb/50 gloms (glomeruli showing any thrombosis out of a total of 50) (C57BL/6 mice [2]; individual mice, 24 hours after disease induction, treated 2 hours before): 7 /50 gloms (3×) and 3 /50 gloms
